Each structure is given as a SMILES string. Counter-ions that a name gives are not always drawn. Like-named read-outs stand apart in the source and are kept apart here.

One test concerns the target T1, Dopamine D2 (Rattus norvegicus, UniProt P61169).
T1 construct: dopaminergic receptors was also measured using rat striata; from tissue; host or cells: rat striata
In words: Binding to dopaminergic receptors using rat striata (method of Terai et al.). The method, then: The binding of these compounds to dopaminergic receptors was also measured using rat striata according to the method described by Terai et al. (M. Terai, et al., Eur. J. Pharmacol. 1989, 173, 177).

The next test deals with T2, sigma 2 binding site (Rattus norvegicus, UniProt Q5U3Y7).
T2 sequence (Q5U3Y7 1-176): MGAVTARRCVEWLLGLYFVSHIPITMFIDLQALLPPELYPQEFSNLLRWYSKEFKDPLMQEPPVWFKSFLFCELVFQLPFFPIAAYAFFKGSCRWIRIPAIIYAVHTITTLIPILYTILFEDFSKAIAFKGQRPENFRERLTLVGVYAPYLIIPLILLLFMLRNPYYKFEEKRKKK
Description: Sigma 2 selective receptor binding inhibition assay with [^3H]-di-o-tolylguanidine. The note with it: for S2/S1 Ratio: ratio of Sigma 2 Ki to Sigma 1 Ki.

In test [1] the target is T3, sigma 1 binding site (Cavia porcellus, UniProt Q60492).
T3 sequence (Q60492 whole entry): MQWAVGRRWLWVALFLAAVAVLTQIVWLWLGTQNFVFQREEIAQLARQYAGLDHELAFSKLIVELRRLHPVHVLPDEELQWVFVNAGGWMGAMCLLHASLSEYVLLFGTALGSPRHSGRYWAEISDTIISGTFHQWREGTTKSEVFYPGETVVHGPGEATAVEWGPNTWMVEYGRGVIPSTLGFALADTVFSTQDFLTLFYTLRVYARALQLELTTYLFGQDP
Test [2] concerns the target T3, sigma 1 binding site. In words: biochemical.
[3] abbreviates: read-out: Sigma 2 Ki(nM ± SEM), [^3H]-DTG 1 nM, rat liver crude P2 membrane fraction, 500 nM pentazocine, 2 hours at 25°C.

T1 sequence (P61169 whole entry): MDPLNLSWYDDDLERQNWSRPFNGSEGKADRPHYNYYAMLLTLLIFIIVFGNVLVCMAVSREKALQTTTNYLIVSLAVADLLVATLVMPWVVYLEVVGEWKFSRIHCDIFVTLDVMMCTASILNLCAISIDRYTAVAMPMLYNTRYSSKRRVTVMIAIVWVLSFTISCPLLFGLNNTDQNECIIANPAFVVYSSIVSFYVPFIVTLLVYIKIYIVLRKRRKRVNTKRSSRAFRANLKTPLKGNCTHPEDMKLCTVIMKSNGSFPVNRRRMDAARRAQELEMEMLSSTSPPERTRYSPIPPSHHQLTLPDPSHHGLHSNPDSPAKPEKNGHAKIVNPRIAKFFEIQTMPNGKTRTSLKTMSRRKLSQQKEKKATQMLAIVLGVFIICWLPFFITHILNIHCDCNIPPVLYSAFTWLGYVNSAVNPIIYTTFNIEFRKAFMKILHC

What is called Ki is the dissociation constant of the complex between target and ligand, obtained from inhibition or displacement. Regarding `O=C(O)/C=C/C(=O)O.O=S1(=O)c2ccccc2Nc2ccccc2N1CC1CCN(C[C@H](O)C23CC4CC(CC(C4)C2)C3)CC1.O=S1(=O)c2ccccc2Nc2ccccc2N1CC1CCN(C[C@H](O)C23CC4CC(CC(C4)C2)C3)CC1` [Example 2, (R,S)-1-(1-Adamantyl)-2-[4-(6,11-dihydrodibenzo[c,f][1,2,5]thiadiazepin-6-ylmethyl)piperidin-1-yl]ethanol S,S-dioxide hemifumarate], the Ki on Dopamine D2 came to 450 nM; at sigma 2 binding site (setting [3]) it was 4.1 nM; at sigma 1 binding site [1], 320 nM. Also, the “S2/S1 Ratio” value on sigma 2 binding site came out at 0.01.
Consider `O=S1(=O)c2cc(Cl)ccc2Oc2ccccc2N1CC1CCN(CC(O)c2ccc(F)cc2)CC1` (racemic) [Example 16, (R,S)-1-(4-Fluorophenyl)-2-[4-(3-chloro-6H-dibenzo[b,f][1,4,5]oxathiazepin-6-ylmethyl)piperidin-1-yl]ethanol S,S-dioxide hydrochloride], for which the Ki worked out at 210 nM at Dopamine D2, 85 nM at sigma 1 binding site [2] and 1.1 nM at sigma 2 binding site. Also, the “S2/S1 Ratio” value at sigma 2 binding site came out at 0.01.
In the same order, the values of `O=S1(=O)c2cc(Cl)ccc2Oc2ccccc2N1CC1CCN(CC(O)c2ccc3ccccc3c2)CC1` (racemic) [Example 17, (R,S)-1-(2-Naphthyl)-2-[4-(3-chloro-6H-dibenzo[[b,f][1,4,5]oxathiazepin-6-ylmethyl)piperidin-1-yl]ethanol S,S-dioxide hydrochloride] are 350 nM, 510 nM, 4.2 nM and 0.008.
Consider `O=C(O)/C=C/C(=O)O.O=S1(=O)c2ccccc2Oc2ccccc2N1CC1CCN(C[C@H](O)C23CC4CC(CC(C4)C2)C3)CC1.O=S1(=O)c2ccccc2Oc2ccccc2N1CC1CCN(C[C@H](O)C23CC4CC(CC(C4)C2)C3)CC1` [Example 10, (R,S)-1-(1-Adamantyl)-2-[4-(6H-dibenzo[b,f][1,4,5]oxathiazepin-6-yl-methyl)piperidin-1-yl]ethanol S,S-dioxide hemi-fumarate], for which the Ki on Dopamine D2 was over 1000 nM; at sigma 2 binding site (setting [3]), 0.76 nM; at sigma 1 binding site [1] it was 200 nM. Further, the “S2/S1 Ratio” value on sigma 2 binding site is on record as 0.004.
In the case of `Cc1ccc(C(O)CN2CCC(CN3c4ccccc4Oc4ccccc4S3(=O)=O)CC2)cc1` (racemic) [Example 13, (R,S)-1-(4-Methylphenyl)-2-[4-(6H-dibenzo[b,f][1,4,5]oxathiazepin-6-ylmethyl)piperidin-1-yl]ethanol S,S-dioxide hydrochloride], the figures for the Ki at Dopamine D2, on sigma 1 binding site [2] and on sigma 2 binding site were 180 nM, 89 nM and 1.6 nM, respectively. For the same molecule, the “S2/S1 Ratio” value at sigma 2 binding site amounted to 0.02.
In the same order, the values of `O=S1(=O)c2cc(Cl)ccc2Oc2ccccc2N1CC1CCN(CC(O)C23CC4CC(CC(C4)C2)C3)CC1` (racemic) [Example 14, (R,S)-1-(1-Adamantyl)-2-[4-(3-chloro-6H-dibenzo[b,f][1,4,5]oxathiazepin-6-ylmethyl)piperidin-1-yl]ethanol S,S-dioxide hydrochloride] are 120 nM, 380 nM, 3.1 nM and 0.008.
As for `CN(CCCCN1c2ccccc2Oc2ccc(Cl)cc2S1(=O)=O)CC(O)c1ccc(F)cc1` (racemic) [Example 24, (R,S)-1-(4-Fluorophenyl)-2-[N-methyl-N-[4-(3-chloro-6H-dibenzo[b,f][1,4,5]oxathiazepin-6-yl)butyl]amino]ethanol S,S-dioxide hydrochloride], the Ki on Dopamine D2 is 800 nM; on sigma 1 binding site [2] it was 140 nM; at sigma 2 binding site, 19 nM. At sigma 2 binding site, the “S2/S1 Ratio” value turned out to be 0.1.

Source of the values: patent publication EP0881220A1, “DIARYLSULTAM DERIVATIVES” (priority 1996, dated 1997).
